Measured values as given in patent publication US11987588B2, “Modulators of the beta-3 adrenergic receptor useful for the treatment or prevention of heart failure and disorders related thereto” (Arena Pharmaceuticals, Inc., priority 2017, dated 2024).

Molecular target: Beta-3 Adrenergic Receptor (Homo sapiens (Human), UniProt P13945)
Experiment: Homogeneous Time-Resolved Fluorescence (HTRF) cAMP antagonist assay, IC50 determination
Assay type: cell-based
Details: CHO-K1 cells stably expressing recombinant receptor, isoproterenol at EC90
Method: HTRF cAMP assays were performed according to manufacturer's instructions (Cisbio, cAMP Dynamic 2 Assay Kit; #62AM4PEJ). CHO-K1 cells stably expressing recombinant receptor were harvested and suspended in warm PBS to make a 300,000 cells/mL stock. This cell suspension was dispensed into 384 well assay plates (PerkinElmer ProxiPlate #6008280) at 5 μL per well (1500 cells/well) along with a cAMP standard curve.
Compounds were dissolved and serially diluted (5-fold) in DMSO to generate a 10-point dose response stock. The stock was then diluted 100-fold in assay buffer (PBS containing 1 mM IBMX) before a volume of 2.5 μL was added to the cells (the final, top concentration of compound in the dose-response is typically 10 or 100 μM). After a brief incubation, 2.5 μL of isoproterenol stock, prepared at a concentration 4 times its EC90 at the receptor of interest, was added to the wells. The EC90 for isoproterenol, a beta-adrenergic agonist, was determined in separate experiments using standard methods to measure agonist potencies.
Following a 1-hour incubation at room temperature, 5 μL of cAMP-D2 Reagent diluted in Lysis Buffer was added to each well followed by 5 μL of Cryptate Reagent. Plates were further incubated at room temperature for 1 hour prior to reading. Time resolved fluorescence measurements were collected on a suitable, HTRF-capable plate reader.
Counts from the plate reader were fit to the cAMP standard curve on the assay plate in order to determine cAMP concentrations in each well, and these values were used to construct dose-response curves to obtain IC50 values.

Chain of Beta-3 Adrenergic Receptor (P13945 whole entry, species assumed): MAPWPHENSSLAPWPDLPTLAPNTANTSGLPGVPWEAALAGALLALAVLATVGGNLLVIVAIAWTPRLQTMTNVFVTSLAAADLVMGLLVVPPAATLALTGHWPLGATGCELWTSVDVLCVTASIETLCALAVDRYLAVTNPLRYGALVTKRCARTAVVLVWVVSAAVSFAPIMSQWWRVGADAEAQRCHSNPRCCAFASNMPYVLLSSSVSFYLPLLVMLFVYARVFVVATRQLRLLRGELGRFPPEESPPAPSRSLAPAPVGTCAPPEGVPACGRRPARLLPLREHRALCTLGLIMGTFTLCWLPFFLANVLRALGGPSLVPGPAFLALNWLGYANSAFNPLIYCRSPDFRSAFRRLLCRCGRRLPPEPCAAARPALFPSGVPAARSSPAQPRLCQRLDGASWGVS

SMILES | IC50 [nM]
CCn1cc(S(=O)(=O)N2CCC3(CC2)C[C@@H](NC[C@H](O)COc2cccc(S(N)(=O)=O)c2)CO3)c(=O)c2ccc(C)cc21 [Compound 557, 3-((S)-3-((R)-8-(1-ethyl-7-methyl-4-oxo-1,4-dihydroquinolin-3-ylsulfonyl)-1-oxa-8-azaspiro[4.5]decan-3-ylamino)-2-hydroxypropoxy)benzenesulfonamide] | 83.9
CCNS(=O)(=O)c1cccc(OC[C@@H](O)CN[C@H]2COC3(CCN(S(=O)(=O)c4cnc5cc[nH]c5c4)CC3)C2)c1 [Compound 520, 3-((S)-3-((R)-8-(1H-pyrrolo[3,2-b]pyridin-6-ylsulfonyl)-1-oxa-8-azaspiro[4.5]decan-3-ylamino)-2-hydroxypropoxy)-N-ethylbenzenesulfonamide] | 14.6
CCNS(=O)(=O)c1cccc(OC[C@@H](O)CNC2COC3(CCN(S(=O)(=O)c4cccc(-c5ccc(OCC#N)cc5)c4)CC3)C2)c1 (stereo partly drawn) [Compound 213, 3-((2S)-3-(8-(4′-(cyanomethoxy)biphenyl-3-ylsulfonyl)-1-oxa-8-azaspiro[4.5]decan-3-ylamino)-2-hydroxypropoxy)-N-ethylbenzenesulfonamide] | 49.1
CNS(=O)(=O)c1cccc(OC[C@@H](O)CN[C@H]2COC3(CCN(c4nc(OC)cc(OC)n4)CC3)C2)c1 [Compound 584, 3-((S)-3-((R)-8-(4,6-dimethoxypyrimidin-2-yl)-1-oxa-8-azaspiro[4.5]decan-3-ylamino)-2-hydroxypropoxy)-N-methylbenzenesulfonamide] | 266
CNS(=O)(=O)c1cccc(OC[C@@H](O)CNC2COC3(CCN(S(=O)(=O)c4cccc(-c5ccc(CNCC#N)cc5)c4)CC3)C2)c1 (stereo partly drawn) [Compound 338, 3-((2S)-3-(8-(4′-((cyanomethylamino)methyl)biphenyl-3-ylsulfonyl)-1-oxa-8-azaspiro[4.5]decan-3-ylamino)-2-hydroxypropoxy)-N-methylbenzenesulfonamide] | 47.1
CCNS(=O)(=O)c1cccc(OC[C@@H](O)CNC2COC3(CCN(S(=O)(=O)c4ccc5nsnc5c4)CC3)C2)c1 (stereo partly drawn) [Compound 229, 3-((2S)-3-(8-(benzo[c][1,2,5]thiadiazol-5-ylsulfonyl)-1-oxa-8-azaspiro[4.5]decan-3-ylamino)-2-hydroxypropoxy)-N-ethylbenzenesulfonamide] | 272
CNS(=O)(=O)c1cccc(OC[C@@H](O)CNC2COC3(CCN(S(=O)(=O)c4cccc(-c5cccc(C#N)c5)c4)CC3)C2)c1 (stereo partly drawn) [Compound 72, 3-((2S)-3-(8-(3′-cyanobiphenyl-3-ylsulfonyl)-1-oxa-8-azaspiro[4.5]decan-3-ylamino)-2-hydroxypropoxy)-N-methylbenzenesulfonamide] | 28.7
CNS(=O)(=O)c1cccc(OC[C@@H](O)CNC2COC3(CCN(S(=O)(=O)c4cccc(-c5ccc(CNCC(C)C)cc5)c4)CC3)C2)c1 (stereo partly drawn) [Compound 319, 3-((2S)-2-hydroxy-3-(8-(4′-((isobutylamino)methyl)biphenyl-3-ylsulfonyl)-1-oxa-8-azaspiro[4.5]decan-3-ylamino)propoxy)-N-methylbenzenesulfonamide] | 34.3
CNS(=O)(=O)c1cccc(OC[C@@H](O)CN[C@H]2COC3(CCN(S(=O)(=O)c4cccc(-c5ccc(OCC#N)cc5)c4)CC3)C2)c1 [Compound 298, 3-((S)-3-((R)-8-(4′-(cyanomethoxy)biphenyl-3-ylsulfonyl)-1-oxa-8-azaspiro[4.5]decan-3-ylamino)-2-hydroxypropoxy)-N-methylbenzenesulfonamide] | 26
NS(=O)(=O)c1cccc(OC[C@@H](O)CN[C@H]2COC3(CCN(S(=O)(=O)c4cnc5ccccc5c4)CC3)C2)c1 [Compound 562, 3-((S)-2-hydroxy-3-((R)-8-(quinolin-3-ylsulfonyl)-1-oxa-8-azaspiro[4.5]decan-3-ylamino)propoxy)benzenesulfonamide] | 16.3
Cc1nc2cc(S(=O)(=O)N3CCC4(CC3)C[C@@H](NC[C@H](O)COc3cccc(S(N)(=O)=O)c3)CO4)cnc2[nH]1 [Compound 559, 3-((S)-2-hydroxy-3-((R)-8-(2-methyl-3H-imidazo[4,5-b]pyridin-6-ylsulfonyl)-1-oxa-8-azaspiro[4.5]decan-3-ylamino)propoxy)benzenesulfonamide] | 34.7
CNS(=O)(=O)c1cccc(OC[C@@H](O)CNC2COC3(CCN(S(=O)(=O)c4ccc(-c5cc(C(F)(F)F)nn5C)s4)CC3)C2)c1 (stereo partly drawn) [Compound 191, 3-((2S)-2-hydroxy-3-(8-(5-(1-methyl-3-(trifluoromethyl)-1H-pyrazol-5-yl)thiophen-2-ylsulfonyl)-1-oxa-8-azaspiro[4.5]decan-3-ylamino)propoxy)-N-methylbenzenesulfonamide] | 80.9

Other lines, results leading:

IC50 [nM] | SMILES
8.65 | CNS(=O)(=O)c1cccc(OC[C@@H](O)CNC2COC3(CCN(S(=O)(=O)c4ccc(C)c(C#N)c4)CC3)C2)c1 (stereo partly drawn) [Compound 198, 3-((2S)-3-(8-(3-cyano-4-methylphenylsulfonyl)-1-oxa-8-azaspiro[4.5]decan-3-ylamino)-2-hydroxypropoxy)-N-methylbenzenesulfonamide]
26 | CNS(=O)(=O)c1cccc(OC[C@@H](O)CN[C@H]2COC3(CCN(S(=O)(=O)c4cnc5cc(F)ccc5c4O)CC3)C2)c1 [Compound 539, 3-((S)-3-((R)-8-(7-fluoro-4-hydroxyquinolin-3-ylsulfonyl)-1-oxa-8-azaspiro[4.5]decan-3-ylamino)-2-hydroxypropoxy)-N-methylbenzenesulfonamide]
19.1 | CNS(=O)(=O)c1cccc(OC[C@@H](O)CNC2COC3(CCN(S(=O)(=O)c4cc(Br)ccc4OC)CC3)C2)c1 (stereo partly drawn) [Compound 220, 3-((2S)-3-(8-(5-bromo-2-methoxyphenylsulfonyl)-1-oxa-8-azaspiro[4.5]decan-3-ylamino)-2-hydroxypropoxy)-N-methylbenzenesulfonamide]
13.5 | CNS(=O)(=O)c1cccc(OC[C@@H](O)CNC2COC3(CCN(S(=O)(=O)c4cc(C)ccc4F)CC3)C2)c1 (stereo partly drawn) [Compound 150, 3-((2S)-3-(8-(2-fluoro-5-methylphenylsulfonyl)-1-oxa-8-azaspiro[4.5]decan-3-ylamino)-2-hydroxypropoxy)-N-methylbenzenesulfonamide]
8.79 | CNS(=O)(=O)c1cccc(OC[C@@H](O)CNC2COC3(CCN(S(=O)(=O)c4ccc(OC)c(Cl)c4)CC3)C2)c1 (stereo partly drawn) [Compound 207, 3-((2S)-3-(8-(3-chloro-4-methoxyphenylsulfonyl)-1-oxa-8-azaspiro[4.5]decan-3-ylamino)-2-hydroxypropoxy)-N-methylbenzenesulfonamide]
61.5 | CNS(=O)(=O)c1cccc(OC[C@@H](O)CNC2COC3(CCN(S(=O)(=O)c4ccc(NCCO)nc4)CC3)C2)c1 (stereo partly drawn) [Compound 428, 3-((2S)-2-hydroxy-3-(8-(6-(2-hydroxyethylamino)pyridin-3-ylsulfonyl)-1-oxa-8-azaspiro[4.5]decan-3-ylamino)propoxy)-N-methylbenzenesulfonamide]
31.7 | CNS(=O)(=O)c1cccc(OC[C@@H](O)CNC2COC3(CCN(S(=O)(=O)c4ccc(OC(F)(F)F)cc4)CC3)C2)c1 (stereo partly drawn) [Compound 57, 3-((2S)-2-hydroxy-3-(8-(4-(trifluoromethoxy)phenylsulfonyl)-1-oxa-8-azaspiro[4.5]decan-3-ylamino)propoxy)-N-methylbenzenesulfonamide]
